Earlier results on one compound are cited in patent US4894235A, “Nifedipine-containing form of administration and method for its production” (Dr. Rentschler, Arzneimmittel GmbH & Co., priority 1984, dated 1990).

Each structure is given as a SMILES string.

For series [1] the following is noted: Ramsch, Selecta 10, p. 860, 1983.
For series [2] the following is noted: influence of light.

As to `COC(=O)C1=C(C)NC(C)=C(C(=O)OC)C1c1ccccc1[N+](=O)[O-]` [Nifedipine, 1,4-dihydro-2,6-dimethyl-4-(2-nitrophenyl)-3,5-pyridine-dicarboxylic acid-dimethylester], the “lower limit for blood plasma levels” value in series [1] is on record as 10 to 15 nanograms per milliliter. Also, the photo-sensitivity result in series [2] is “very photo-sensitive”.
